Literature values in US11122797B2, “Pest repellent material” (JGC CATALYSTS AND CHEMICALS LTD., priority 2017, dated 2021).

Settings: within 6 hours

CCN(CC)C(=O)c1cccc(C)c1 [DEET, N, N-diethyl-m-toluamide]
DEET applied to the skin transdermally absorbed: about 50%
